Assay results taken from patent US20250186463A1, “ABIRATERONE DECANOATE PRODRUGS AND USE IN THERAPY” (PROPELLA THERAPEUTICS, INC., priority 2022, published 2025).

Experiments:
serum corticosterone = test: Phase 1/2a study: serum corticosterone; assay type: in vivo, human
Description: (§1) This is a Phase 1/2a, Open-label, Multicenter Study of Intramuscular Abiraterone Decanoate Depot in Patients with Advanced Prostate Cancer.
(§2) Formulations and dosing regimen: The formulation used in the study (abiraterone decanoate for intramuscular [i.m.] injection) is a solution formulation of abiraterone decanoate at a concentration of 180 mg/mL and will be provided as a 10 mL vial containing 990 mg of abiraterone decanoate in 5.5 mL of solution. See further details of the formulations in Example 2 (for each milliliter: Abiraterone Decanoate, about 180 mg/mL; Benzyl Alcohol, about 100 mg/mL; Benzyl Benzoate, about 200 mg/mL; and Corn oil, q.s. to 1 mL). Abiraterone Decanoate will be administered as an i.m. injection every 84 days (±3 days). Dose escalation will proceed with a modified Fibonacci sequence. Based on emerging data, intermediate doses may be evaluated.
(§3) Study Design: This is a Phase 1/2a, Open-label, Multicenter Study of Intramuscular Abiraterone Decanoate Depot in Patients with Advanced Prostate Cancer. In Phase 1, all patients will receive i.m. Abiraterone Decanoate depot in 84-day treatment cycles combined with daily oral prednisone or dexamethasone. In Phase 2a, patients will be randomized 1:1 and treated with i.m. Abiraterone Decanoate depot in 84-day treatment cycles in combination with dexamethasone (Arm A) or abiraterone acetate daily+prednisone (Arm B). In both Phases, patients will undergo scheduled periodic assessments of serum testosterone levels. Participants may continue treatment until they meet any discontinuation criteria outlined in the protocol.
(§4) Pharmacodynamic Analysis: Determination of Prostate Specific Antigen (PSA), serum testosterone, dehydroepiandrosterone (DHEA), dehydroepiandrosterone sulfate (DHEA-S), androstenedione, dihydrotestosterone (DHT), progesterone, cortisol, adrenocorticotropic hormone (ACTH), corticosterone, 11-dexoycorticosterone (11-DOC) and 11-deoxycortisol.
(§5) Based on the available data, the recommended dose for Phase 2 is about 1260 mg abiraterone decanoate once every three months (12 weeks). All cohorts 1 and 2 in this clinical study were treated with prednisone, 5 mg orally once or twice daily; and all cohorts 3-5 were treated with dexamethasone, 0.5 mg orally once daily. The results shown herein for these cohorts should be understood accordingly.
See also Table 3B below. […] See also FIG. 11B for the absolute serum progesterone levels for cohorts 4 and 5, with the LLOQ being 1.59 nM. It should be noted that the maximum serum progesterone level observed for cohorts 1-3 is 2.5 nM. FIGS. 3F and 3G show the serum 11-deoxycorticosterone and corticosterone response in cohorts 3, 4, and 5, the trend is similar to that observed for progesterone levels above. See a summary shown in the Table 3C below for the first cycle.

[1] = system: Prostate Specific Antigen (PSA); test: Phase 1/2a study: PSA response; assay type: in vivo, human; conditions: for Undetectable PSA: defined as PSA < 0.2 ng/mL
Description: as §1, §2, §3, §4, §5
PSA Levels: the median baseline PSA level was 3.01 ng/mL. […] The table below further summarizes the reduction of PSA observed without elevated progesterone level.

[2] = Phase 1/2a study: plasma pharmacokinetics; assay type: in vivo, human; conditions: cohort 3 (720 mg), patient 08-1301, all values
Description: as §2
Pharmacokinetic results: the partial results from pharmacokinetic analysis for cohorts 1, 2, 3, 4, and 5 (180 mg, 360 mg, 720 mg, 1260 mg, and 1800 mg abiraterone decanoate, respectively) are shown in FIGS. 4A-4E. […] And for abiraterone decanoate, minimal increase in AbiDec for 08-1301 was observed which declined to 0 ng/ml thereafter.

[3] = Phase 1/2a study: safety and tolerability; assay type: in vivo, human
Description: At each dose cohort, 3 to 4 patients will be enrolled. If none of the patients experience a dose-limiting toxicity (DLT) in the first 28 days (the DLT period) the dose will be escalated in the next cohort. A DLT will be defined as any of the following using on the Common Terminology Criteria for Adverse Events (CTCAE) criteria v5.0 regardless of attribution to the study drug unless it is clearly due to the patient's underlying disease or extraneous causes:
Safety Analysis: Adverse events will be summarized by severity, seriousness, and relationship to study treatments. Laboratory data, vital signs, PFTs and ECGs will be compared to baseline values.

[4] = Abiraterone plasma exposure in monkeys, vehicle comparison; assay type: in vivo; conditions: corn oil 70%, benzyl benzoate 20%, same concentration and dose
Description: In some embodiments, the abiraterone prodrug formulation can comprise a combination of benzyl alcohol and benzyl benzoate as cosolvents. In some embodiments, the benzyl alcohol can be present in an amount of about 0-20% (e.g., 0-15% or 0-10%, such as about 10%) of the solvent, and benzyl benzoate can be present in an amount of about 0-50% (e.g., 0-35% or 0-30%, such as about 20%) of the solvent, wherein the balance of the solvent can be any one or more of the pharmaceutically acceptable oil described herein, such as corn oil, castor oil, sesame oil, peanut oil, cottonseed oil, and/or Miglyol 812, etc.

[5] = Animal studies of intramuscular abiraterone decanoate: liver toxicity; assay type: in vivo; conditions: intramuscular administration, tested doses

plasma abiraterone values [2]: below the LLOQ | abiraterone plasma exposure versus corn oil 90% / benzyl alcohol 10% formulation [4]: much higher abiraterone plasma exposure
Compound: CCCCCCCCCC(=O)O[C@H]1CC[C@@]2(C)C(=CC[C@@H]3[C@@H]2CC[C@]2(C)C(c4cccnc4)=CC[C@@H]32)C1 [abiraterone decanoate]
Corticosterone Changes during cycle 1, Percent (%) (serum corticosterone; 720 mg (N = 4), Day 14): 48% | Corticosterone Changes during cycle 1, Percent (%) (serum corticosterone; 720 mg (N = 4), Day 28): 27% | Corticosterone Changes during cycle 1, Percent (%) (serum corticosterone; 720 mg (N = 4), Day 56): 9% | Corticosterone Changes during cycle 1, Percent (%) (serum corticosterone; 720 mg (N = 4), Day 84): −33% | Corticosterone Changes during cycle 1, Percent (%) (serum corticosterone; 1,260 mg (N = 6), Day 14): 184% | Corticosterone Changes during cycle 1, Percent (%) (serum corticosterone; 1,260 mg (N = 6), Day 28): 490% | Corticosterone Changes during cycle 1, Percent (%) (serum corticosterone; 1,260 mg (N = 6), Day 56): 19% | Corticosterone Changes during cycle 1, Percent (%) (serum corticosterone; 1,260 mg (N = 6), Day 84): 32% | Corticosterone Changes during cycle 1, Percent (%) (serum corticosterone; 1,800 mg (N = 8), Day 14): 455% | Corticosterone Changes during cycle 1, Percent (%) (serum corticosterone; 1,800 mg (N = 8), Day 28): 259% | Corticosterone Changes during cycle 1, Percent (%) (serum corticosterone; 1,800 mg (N = 8), Day 56): 54% | Corticosterone Changes during cycle 1, Percent (%) (serum corticosterone; 1,800 mg (N = 8), Day 84): 109% | percentages of patients achieving PSA50 and 90 versus those reported for abiraterone acetate (AA) and enzalutamide (Enza) ([1]; Chemo-naïve CRPC, FIGS. 9A and 9B): much higher | PSA at follow-up ([1]; Patient 1, 180 mg, CSPC, enzalutamide started after study): below LLOQ | patients with PSA50 ([1]; cohorts 3, 4, and 5): 15 out of 16 | patients with PSA90 ([1]; cohorts 3, 4, and 5): 8 out of 16 | Best PSA Response ([1]; patient 02-1403, Cohort 4, 1260 mg, mCRPC, Visit C4D28): −98% | Undetectable PSA ([1]; patient 02-1403, Cohort 4, 1260 mg, mCRPC): No | Best PSA Response ([1]; patient 02-1405, Cohort 4, 1260 mg, mCRPC, Visit C1D56): −94% | Undetectable PSA ([1]; patient 02-1405, Cohort 4, 1260 mg, mCRPC): No | Best PSA Response ([1]; patient 02-1504, Cohort 5, 1800 mg, mCRPC, Visit C1D28): −92.4 | Undetectable PSA ([1]; patient 02-1504, Cohort 5, 1800 mg, mCRPC): No | Best PSA Response ([1]; patient 02-1505, Cohort 5, 1800 mg, mCSPC, Visit C1D84): −98% | Undetectable PSA ([1]; patient 02-1505, Cohort 5, 1800 mg, mCSPC): No | Best PSA Response ([1]; patient 04-1406, Cohort 4, 1260 mg, mCSPC, Visit C1D56): −82% | Undetectable PSA ([1]; patient 04-1406, Cohort 4, 1260 mg, mCSPC): No | Best PSA Response ([1]; patient 04-1503, Cohort 5, 1800 mg, mCSPC, Visit C1D84): −67% | Undetectable PSA ([1]; patient 04-1503, Cohort 5, 1800 mg, mCSPC): Yes | Best PSA Response ([1]; patient 04-1506, Cohort 5, 1800 mg, mCRPC, Visit C1D28): −54% | Undetectable PSA ([1]; patient 04-1506, Cohort 5, 1800 mg, mCRPC): No | Best PSA Response ([1]; patient 06-1401, Cohort 4, 1260 mg, mCRPC, Visit C3D84): −99.97% | Undetectable PSA ([1]; patient 06-1401, Cohort 4, 1260 mg, mCRPC): Yes | Best PSA Response ([1]; patient 06-1402, Cohort 4, 1260 mg, mCRPC, Visit C4D28): −93% | Undetectable PSA ([1]; patient 06-1402, Cohort 4, 1260 mg, mCRPC): No | Best PSA Response ([1]; patient 06-1404, Cohort 4, 1260 mg, mCSPC, Visit C2D84): −67% | Undetectable PSA ([1]; patient 06-1404, Cohort 4, 1260 mg, mCSPC): Yes | Best PSA Response ([1]; patient 06-1501, Cohort 5, 1800 mg, mCRPC, Visit C1D84): 48% | Undetectable PSA ([1]; patient 06-1501, Cohort 5, 1800 mg, mCRPC): No | Best PSA Response ([1]; patient 06-1502, Cohort 5, 1800 mg, mCSPC, Visit C2D84): −99.6%^ | Undetectable PSA ([1]; patient 06-1502, Cohort 5, 1800 mg, mCSPC): Yes | increases in upstream steroids from CYP17A1 hydroxylase, compared with Zytiga ([3]; Phase 1 study): far less than observed with Zytiga | safety issues relating to mineralocorticoid excess ([3]; Phase 1 study, to date): no safety issues relating to mineralocorticoid excess | safety profile ([3]; all cohorts 1-5): excellent | tolerability in human subjects ([3]; in vivo): generally well tolerated | liver toxicity [5]: no liver toxicity was observed
